Measurements published in PubChem BioAssay AID328 (DTP/NCI, 2004).
Inconclusive results and toxic doses are left out.

Tested on: BDF1 mice, P388 leukemia ip, median survival T/C
Assay: NCI In Vivo Anticancer Drug Screen. Data for tumor model P388 Leukemia (intraperitoneal) in B6D2F1 (BDF1) mice
Conditions: endpoint: median survival time, higher = longer survival
In short: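 Transplantable tumour in mice; compound vs vehicle dosing; survival scored; ratio of treated to control reported.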

[1] = dose: 12.5 mg/kg/injection, schedule: Q01DX009 (ip), vehicle: Klucel (hydroxypropylcellulose) (HPC)
[2] = dose: 50.0 mg/kg/injection, schedule: Q01DX009 (ip), vehicle: Klucel (hydroxypropylcellulose) (HPC)
[3] = dose: 50.0 mg/kg/injection, schedule: Q01DX009 (ip), vehicle: saline
[4] = dose: 100.0 mg/kg/injection, schedule: Q01DX009 (ip), vehicle: saline
[5] = dose: 50.0 mg/kg/injection, schedule: Q01DX009 (ip), vehicle: saline with Tween-80
[6] = dose: 100.0 mg/kg/injection, schedule: Q01DX009 (ip), vehicle: saline with Tween-80
[7] = dose: 50.0 mg/kg/injection, schedule: Q01DX010 (ip), vehicle: saline
[8] = dose: 100.0 mg/kg/injection, schedule: Q01DX010 (ip), vehicle: saline
[9] = dose: 100.0 mg/kg/injection, schedule: Q04DX003 (ip), vehicle: Klucel (hydroxypropylcellulose) (HPC)
[10] = dose: 200.0 mg/kg/injection, schedule: Q04DX003 (ip), vehicle: Klucel (hydroxypropylcellulose) (HPC)
[11] = dose: 400.0 mg/kg/injection, schedule: Q04DX003 (ip), vehicle: Klucel (hydroxypropylcellulose) (HPC)

O=C1c2ccccc2-c2cccc3cccc1c23
T/C (dose: 6.25 mg/kg/injection, schedule: Q01DX001 (ip), vehicle: saline sonified): 96 % of control | T/C (dose: 12.5 mg/kg/injection, schedule: Q01DX001 (ip), vehicle: saline sonified): 96 % of control | T/C (dose: 25.0 mg/kg/injection, schedule: Q01DX001 (ip), vehicle: saline sonified): 92 % of control

COC(=O)Nc1cccc(-c2nc3ccc(NC(=O)OC)cc3c(=O)n2-c2ccccc2)c1
T/C (dose: 6.25 mg/kg/injection, schedule: Q01DX009 (ip), vehicle: Klucel (hydroxypropylcellulose) (HPC)): 108 % of control | T/C [1]: 117 % of control | T/C (dose: 25.0 mg/kg/injection, schedule: Q01DX009 (ip), vehicle: saline): 150 % of control | T/C (dose: 25.0 mg/kg/injection, schedule: Q01DX009 (oral), vehicle: Klucel (hydroxypropylcellulose) (HPC)): 107 % of control | T/C [2]: 213 % of control | T/C [3]: 155 % of control | T/C (dose: 50.0 mg/kg/injection, schedule: Q01DX009 (oral), vehicle: Klucel (hydroxypropylcellulose) (HPC)): 109 % of control | T/C [4]: 186 % of control | T/C (dose: 100.0 mg/kg/injection, schedule: Q01DX009 (oral), vehicle: Klucel (hydroxypropylcellulose) (HPC)): 109 % of control | T/C (dose: 800.0 mg/kg/injection, schedule: Q01DX009 (oral), vehicle: Klucel (hydroxypropylcellulose) (HPC)): 155 % of control

N#C/C(=C/c1ccccc1)CBr
T/C (dose: 25.0 mg/kg/injection, schedule: Q01DX001 (ip), vehicle: saline with Tween-80): 102 % of control | T/C (dose: 50.0 mg/kg/injection, schedule: Q01DX001 (ip), vehicle: saline with Tween-80): 93 % of control

Nc1ccc(Cl)c(Cl)c1
T/C [5]: 98 % of control | T/C [3]: 106 % of control | T/C [6]: 104 % of control | T/C [4]: 118 % of control | T/C (dose: 200.0 mg/kg/injection, schedule: Q01DX009 (ip), vehicle: saline with Tween-80): 104 % of control

CCNC(C)(C)C(SS)c1ccc(Br)cc1 (centres undefined)
T/C (dose: 6.25 mg/kg/injection, schedule: Q01DX009 (ip), vehicle: water): 100 % of control | T/C (dose: 12.5 mg/kg/injection, schedule: Q01DX009 (ip), vehicle: water): 92 % of control | T/C (dose: 25.0 mg/kg/injection, schedule: Q01DX009 (ip), vehicle: water): 96 % of control | T/C (dose: 25.0 mg/kg/injection, schedule: Q04DX003 (ip), vehicle: water): 102 % of control | T/C (dose: 50.0 mg/kg/injection, schedule: Q01DX009 (ip), vehicle: water): 101 % of control | T/C (dose: 50.0 mg/kg/injection, schedule: Q04DX003 (ip), vehicle: water): 100 % of control | T/C (dose: 100.0 mg/kg/injection, schedule: Q01DX009 (ip), vehicle: water): 109 % of control | T/C (dose: 100.0 mg/kg/injection, schedule: Q04DX003 (ip), vehicle: water): 102 % of control | T/C (dose: 200.0 mg/kg/injection, schedule: Q01DX009 (ip), vehicle: water): 101 % of control | T/C (dose: 200.0 mg/kg/injection, schedule: Q04DX003 (ip), vehicle: water): 106 % of control | T/C (dose: 400.0 mg/kg/injection, schedule: Q04DX003 (ip), vehicle: water): 90 % of control

Oc1cccc(O)c1
T/C [7]: 95 % of control | T/C [8]: 91 % of control

O=C1CCCC(=O)N1CCCCCCN1C(=O)CCCC1=O
T/C [5]: 104 % of control | T/C [6]: 112 % of control

C=CCCCCCCCCCCCCCC
T/C (dose: 145.0 mg/kg/injection, schedule: Q01DX010 (ip), vehicle: saline): 104 % of control | T/C (dose: 220.0 mg/kg/injection, schedule: Q01DX010 (ip), vehicle: saline): 113 % of control | T/C (dose: 330.0 mg/kg/injection, schedule: Q01DX010 (ip), vehicle: saline): 104 % of control | T/C (dose: 500.0 mg/kg/injection, schedule: Q01DX010 (ip), vehicle: saline): 118 % of control

O=C(CC(c1ccccc1)c1c(O)c2ccccc2oc1=O)c1ccccc1 (centres undefined)
T/C (dose: 0.39 mg/kg/injection, schedule: Q01DX009 (ip), vehicle: saline with Tween-80): 108 % of control | T/C (dose: 0.78 mg/kg/injection, schedule: Q01DX009 (ip), vehicle: saline with Tween-80): 106 % of control | T/C (dose: 1.56 mg/kg/injection, schedule: Q01DX009 (ip), vehicle: saline with Tween-80): 97 % of control | T/C (dose: 3.12 mg/kg/injection, schedule: Q01DX009 (ip), vehicle: saline with Tween-80): 90 % of control | T/C (dose: 12.5 mg/kg/injection, schedule: Q04DX003 (ip), vehicle: saline with Tween-80): 120 % of control | T/C (dose: 25.0 mg/kg/injection, schedule: Q04DX003 (ip), vehicle: saline with Tween-80): 109 % of control | T/C (dose: 50.0 mg/kg/injection, schedule: Q04DX003 (ip), vehicle: saline with Tween-80): 92 % of control | T/C (dose: 100.0 mg/kg/injection, schedule: Q04DX003 (ip), vehicle: saline with Tween-80): 101 % of control | T/C (dose: 200.0 mg/kg/injection, schedule: Q04DX003 (ip), vehicle: saline with Tween-80): 108 % of control

CC(=O)NC1CCCN(O)C(=O)/C=C(/C)CCOC(=O)C(NC(C)=O)CCCN(O)C(=O)/C=C(/C)CCOC(=O)C(NC(C)=O)CCCN(O)C(=O)/C=C(/C)CCOC1=O.[Fe] (centres undefined)
T/C [1]: 86 % of control | T/C (dose: 25.0 mg/kg/injection, schedule: Q01DX009 (ip), vehicle: Klucel (hydroxypropylcellulose) (HPC)): 92 % of control | T/C [2]: 99 % of control

COC1N(C2CC(O)C(CO)O2)C(=O)NC(=O)C1(F)Br (centres undefined)
T/C (dose: 5.0 mg/kg/injection, schedule: Q01DX009 (ip), vehicle: saline): 90 % of control | T/C (dose: 10.0 mg/kg/injection, schedule: Q01DX009 (ip), vehicle: saline): 109 % of control | T/C (dose: 20.0 mg/kg/injection, schedule: Q01DX009 (ip), vehicle: saline): 109 % of control | T/C (dose: 40.0 mg/kg/injection, schedule: Q01DX009 (ip), vehicle: saline): 122 % of control | T/C [3]: 111 % of control | T/C [4]: 113 % of control | T/C (dose: 100.0 mg/kg/injection, schedule: Q04DX003 (ip), vehicle: saline): 104 % of control | T/C (dose: 200.0 mg/kg/injection, schedule: Q01DX009 (ip), vehicle: saline): 106 % of control | T/C (dose: 200.0 mg/kg/injection, schedule: Q04DX003 (ip), vehicle: saline): 122 % of control | T/C (dose: 400.0 mg/kg/injection, schedule: Q01DX009 (ip), vehicle: saline): 94 % of control | T/C (dose: 400.0 mg/kg/injection, schedule: Q04DX003 (ip), vehicle: saline): 150 % of control

COc1ccc(/C=C(\CC(=O)O)C(=O)O)cc1OC
T/C (dose: 100.0 mg/kg/injection, schedule: Q01DX009 (ip), vehicle: Klucel (hydroxypropylcellulose) (HPC)): 100 % of control | T/C [9]: 100 % of control | T/C (dose: 200.0 mg/kg/injection, schedule: Q01DX009 (ip), vehicle: Klucel (hydroxypropylcellulose) (HPC)): 109 % of control | T/C [10]: 100 % of control | T/C (dose: 400.0 mg/kg/injection, schedule: Q01DX009 (ip), vehicle: Klucel (hydroxypropylcellulose) (HPC)): 95 % of control | T/C [11]: 90 % of control

COC(=O)CCCCCCCC(=O)OCC#CC#CCOC(=O)CCCCCCCC(=O)OC
T/C [9]: 109 % of control | T/C [10]: 104 % of control | T/C [11]: 104 % of control

CCc1c(Cl)c(C)cc(O)c1Cl
T/C (dose: 18.0 mg/kg/injection, schedule: Q01DX009 (ip), vehicle: gum acacia): 112 % of control | T/C (dose: 25.0 mg/kg/injection, schedule: Q01DX009 (ip), vehicle: gum acacia): 112 % of control | T/C (dose: 25.0 mg/kg/injection, schedule: Q04DX003 (ip), vehicle: gum acacia): 88 % of control | T/C (dose: 50.0 mg/kg/injection, schedule: Q01DX009 (ip), vehicle: gum acacia): 100 % of control | T/C (dose: 50.0 mg/kg/injection, schedule: Q04DX003 (ip), vehicle: gum acacia): 92 % of control | T/C (dose: 100.0 mg/kg/injection, schedule: Q04DX003 (ip), vehicle: gum acacia): 96 % of control

COc1cc(-c2ccc(Nc3ccccc3C(=O)O)c(OC)c2)ccc1Nc1ccccc1C(=O)O
T/C [7]: 166 % of control | T/C [8]: 158 % of control

Cc1cc(=O)oc2cc3oc(N(C)c4ccccc4)nc(=O)c3cc12
T/C (dose: 100.0 mg/kg/injection, schedule: Q04DX002 (ip), vehicle: saline with Tween-80): 100 % of control | T/C (dose: 200.0 mg/kg/injection, schedule: Q04DX002 (ip), vehicle: saline with Tween-80): 92 % of control | T/C (dose: 400.0 mg/kg/injection, schedule: Q04DX002 (ip), vehicle: saline with Tween-80): 102 % of control

C=C(C)C(O)C(O)c1cc2ccc(=O)oc2cc1OC (centres undefined)
T/C (dose: 8.75 mg/kg/injection, schedule: Q01DX009 (ip), vehicle: carboxymethylcellulose (CMC)): 96 % of control | T/C (dose: 17.5 mg/kg/injection, schedule: Q01DX009 (ip), vehicle: carboxymethylcellulose (CMC)): 88 % of control
